Data taken from patent publication US11254663B2 (BRISTOL-MYERS SQUIBB COMPANY, priority 2019, dated 2022).
Read-outs that look alike come from different tables or passages of the source.

Target: FXR (Homo sapiens (Human), UniProt Q96RI1)
Assay: transient human FXR/Gal4-luciferase reporter assay
Type: cell-based
Procedure, shortened: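 HEK293 cells stably carrying a 5×Gal4 response element–firefly luciferase reporter were transiently transfected overnight with a Gal4 DBD–human FXR LBD fusion plasmid. Compound was added in DMSO and cells were incubated overnight at 37 °C, 5% CO2. Activity was read as Steady-Glo luminescence.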

[1] = Gal4-hFXR fusion construct, HEK293 reporter cells, response relative to 8 μM GW-4064

Sequence of FXR (Q96RI1 262-486): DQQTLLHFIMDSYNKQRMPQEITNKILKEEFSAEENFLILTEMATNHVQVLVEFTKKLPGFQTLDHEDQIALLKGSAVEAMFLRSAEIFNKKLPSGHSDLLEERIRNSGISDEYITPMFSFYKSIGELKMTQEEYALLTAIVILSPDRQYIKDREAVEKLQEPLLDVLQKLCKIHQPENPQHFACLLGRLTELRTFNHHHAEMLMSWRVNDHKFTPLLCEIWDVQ

Row | Compound | EC50 [1] [nM] | EC50 [nM]
1 | N-((4-(3-cyclopropyl-1,2,4-oxadiazol-5-yl)bicyclo[2.2.2]octan-1-yl)methyl)-3-fluoro-N-(3-morpholinophenyl)bicyclo[1.1.1]pentane-1-carboxamide [Example 417] | 207 | –
2 | CC(C)(F)c1nc(C23CCC(CN(C(=O)OC(C)(C)C(F)(F)F)c4cccc(-c5ccc(C6(C#N)CC6)c(F)c5)c4)(CC2)CC3)no1 [Example 591, 1,1,1-trifluoro-2-methylpropan-2-yl (4′-(1-cyanocyclopropyl)-3′-fluoro-[1,1′-biphenyl]-3-yl)((4-(5-(2-fluoropropan-2-yl)-1,2,4-oxadiazol-3-yl)bicyclo[2.2.2]octan-1-yl)methyl) carbamate] | 77 | –
3 | CC(C)Oc1ccc(-c2cccc(N(CC34CCC(c5noc(C(C)(C)F)n5)(CC3)CC4)C(=O)OC3(C(F)(F)F)COC3)c2)cc1 [Example 632, 3-(trifluoromethyl)oxetan-3-yl ((4-(5-(2-fluoropropan-2-yl)-1,2,4-oxadiazol-3-yl)bicyclo[2.2.2]octan-1-yl)methyl)(4′-isopropoxy-[1,1′-biphenyl]-3-yl)carbamate] | 222 | –
4 | Cc1cnc(-c2cccc(N(CC34CCC(c5nc(C6CC6)no5)(CC3)CC4)C(=O)C34CC(F)(C3)C4)c2)cn1 [Example 310, N-((4-(3-cyclopropyl-1,2,4-oxadiazol-5-yl)bicyclo[2.2.2]octan-1-yl)methyl)-3-fluoro-N-(3-(5-methylpyrazin-2-yl)phenyl)bicyclo[1.1.1]pentane-1-carboxamide] | 59 | –
5 | CC(C)(O)c1ccc(-c2cccc(N(CC34CCC(c5noc(C(C)(C)F)n5)(CC3)CC4)C(=O)NCC3(O)CC3)c2)cc1 [Example 648, 1-((4-(5-(2-fluoropropan-2-yl)-1,2,4-oxadiazol-3-yl)bicyclo[2.2.2]octan-1-yl)methyl)-3-((1-hydroxycyclopropyl)methyl)-1-(4′-(2-hydroxypropan-2-yl)-[1,1′-biphenyl]-3-yl)urea] | – | 509
6 | O=C(N(CC12CCC(c3noc(C4(C(F)(F)F)CC4)n3)(CC1)CC2)c1cccc(-c2ccc(OC(F)F)cc2)c1)C12CC(F)(C1)C2 [Example 522, N-(4′-(difluoromethoxy)-[1,1′-biphenyl]-3-yl)-3-fluoro-N-((4-(5-(1-(trifluoromethyl)cyclopropyl)-1,2,4-oxadiazol-3-yl)bicyclo[2.2.2]octan-1-yl)methyl)bicyclo[1.1.1]pentane-1-carboxamide] | – | 69
7 | O=C(N(CC12CCC(c3nc(C4CC4)no3)(CC1)CC2)c1cccc(-c2ccc(OC(F)(F)F)cc2)c1)C12CC(F)(C1)C2 [Example 251, N-((4-(3-cyclopropyl-1,2,4-oxadiazol-5-yl)bicyclo[2.2.2]octan-1-yl)methyl)-3-fluoro-N-(4′-(trifluoromethoxy)-[1,1′-biphenyl]-3-yl)bicyclo[1.1.1]pentane-1-carboxamide] | 277 | –
8 | COc1ccc(-c2cccc(N(CC34CCC(c5cc(C6CC6)nn5C)(CC3)CC4)C(=O)C34CC(F)(C3)C4)c2)cc1 [Example 414, N-((4-(3-cyclopropyl-1-methyl-1H-pyrazol-5-yl)bicyclo[2.2.2]octan-1-yl)methyl)-3-fluoro-N-(4′-methoxy-[1,1′-biphenyl]-3-yl)bicyclo[1.1.1]pentane-1-carboxamide] | 85 | –
9 | CCOc1ncc(-c2cccc(N(CC34CCC(c5nc(C(C)(C)C)no5)(CC3)CC4)C(=O)[C@H]3C[C@@H](OC)C3)c2)cn1 [Example 502, (1S,3S)—N-((4-(3-(tert-butyl)-1,2,4-oxadiazol-5-yl)bicyclo[2.2.2]octan-1-yl)methyl)-N-(3-(2-ethoxypyrimidin-5-yl)phenyl)-3-methoxycyclobutane-1-carboxamide] | – | 689
10 | Cc1nc2ccc(-c3cccc(N(CC45CCC(c6cc(C7CC7)n(C)n6)(CC4)CC5)C(=O)C45CC(F)(C4)C5)c3)cc2s1 [Example 409, N-((4-(5-cyclopropyl-1-methyl-1H-pyrazol-3-yl)bicyclo[2.2.2]octan-1-yl)methyl)-3-fluoro-N-(3-(2-methylbenzo[d]thiazol-6-yl)phenyl)bicyclo[1.1.1]pentane-1-carboxamide] | 73 | –
11 | O=C(N(CC12CCC(c3nc(C4CC4)no3)(CC1)CC2)c1cccc(-c2cnc(C(F)(F)F)nc2)c1)C12CC(F)(C1)C2 [Example 262, N-((4-(3-cyclopropyl-1,2,4-oxadiazol-5-yl)bicyclo[2.2.2]octan-1-yl)methyl)-3-fluoro-N-(3-(2-(trifluoromethyl)pyrimidin-5-yl)phenyl)bicyclo[1.1.1]pentane-1-carboxamide] | 140 | –
12 | COc1cc(-c2cccc(N(CC34CCC(C(=O)NC5CC5)(CC3)CC4)C(=O)C34CC(F)(C3)C4)c2)ccn1 [Example 570, N-cyclopropyl-4-((3-fluoro-N-(3-(2-methoxypyridin-4-yl)phenyl)bicyclo[1.1.1]pentane-1-carboxamido)methyl)bicyclo[2.2.2]octane-1-carboxamide] | 926 | –
13 | CC(C)Oc1ccc(-c2ccnc(N(CC34CCC(c5ccc(C(C)(F)F)cn5)(CC3)CC4)C(=O)[C@H]3C[C@@](C)(OC(F)F)C3)c2)cc1 [Example 640, (cis)-N-((4-(5-(1,1-difluoroethyl)pyridin-2-yl)bicyclo[2.2.2]octan-1-yl)methyl)-3-(difluoromethoxy)-N-(4-(4-isopropoxyphenyl)pyridin-2-yl)-3-methylcyclobutane-1-carboxamide] | 27 | –
14 | CC(F)(F)c1nc(C23CCC(CN(C(=O)C45CC(F)(C4)C5)c4ccc(F)c(N5CCC5)c4)(CC2)CC3)no1 [Example 575, N-(3-(azetidin-1-yl)-4-fluorophenyl)-N-((4-(5-(1,1-difluoroethyl)-1,2,4-oxadiazol-3-yl)bicyclo[2.2.2]octan-1-yl)methyl)-3-fluorobicyclo[1.1.1]pentane-1-carboxamide] | 410 | –
15 | CC(C)(O)C12CCC(c3ccnc(N(CC45CCC(c6nc(C7CC7)no6)(CC4)CC5)C(=O)OC(C)(C)C(F)(F)F)n3)(CC1)CC2 [Example 666, 1,1,1-trifluoro-2-methylpropan-2-yl ((4-(3-cyclopropyl-1,2,4-oxadiazol-5-yl)bicyclo[2.2.2]octan-1-yl)methyl)(4-(4-(2-hydroxypropan-2-yl)bicyclo[2.2.2]octan-1-yl)pyrimidin-2-yl)carbamate] | 496 | –
16 | CC(C)(O)c1ccc(-c2cccc(N(CC34CCC(c5noc(C(C)(C)F)n5)(CC3)CC4)C(=O)NCC3(CO)CCOCC3)c2)cc1 [Example 647, 1-((4-(5-(2-fluoropropan-2-yl)-1,2,4-oxadiazol-3-yl)bicyclo[2.2.2]octan-1-yl)methyl)-3-((4-(hydroxymethyl)tetrahydro-2H-pyran-4-yl)methyl)-1-(4′-(2-hydroxypropan-2-yl)-[1,1′-biphenyl]-3-yl)urea] | – | 581
17 | O=C(N(CC12CCC(c3noc(C4(F)CC4)n3)(CC1)CC2)c1cccc(C2CC2)c1)C12CC(F)(C1)C2 [Example 573, N-(3-cyclopropylphenyl)-3-fluoro-N-((4-(5-(1-fluorocyclopropyl)-1,2,4-oxadiazol-3-yl)bicyclo[2.2.2]octan-1-yl)methyl)bicyclo[1.1.1]pentane-1-carboxamide] | 44 | –
